What was measured:
Test in all cases: relative viability (nuclei count vs DMSO), 5 days (fraction); higher = more cells survive
PC-3 [JPC-3] = system: PC-3 [JPC-3]
How it was run: (§1)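 Values are medians from duplicate plates. Each reflects relative viability, defined as the nuclei count of treated wells over that of vehicle wells. Lung cancer cell lines in 1536-well plates were pin-tool dosed one day after seeding with one drug alone or with a fixed anchor-drug dose plus five library-drug doses (not always all listed) in √10 steps, then fixed, stained and imaged at 4× after 5 days.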

PC-14 = system: PC-14
How it was run: as §1

NCI-H1650 = system: NCI-H1650
How it was run: as §1

NCI-H1355 = system: NCI-H1355
How it was run: as §1

NCI-H1563 = system: NCI-H1563
How it was run: as §1

NCI-H322M = system: NCI-H322M
How it was run: as §1

RERF-LC-KJ = system: RERF-LC-KJ
How it was run: as §1

CAL-12T = system: CAL-12T
How it was run: as §1

EKVX = system: EKVX
How it was run: as §1

NCI-H2228 = system: NCI-H2228
How it was run: as §1

ABC-1 = system: ABC-1
How it was run: as §1

COR-L23 = system: COR-L23
How it was run: as §1

HCC-15 = system: HCC-15
How it was run: as §1

NCI-H2405 = system: NCI-H2405
How it was run: as §1

SW 1573 = system: SW 1573
How it was run: as §1

HCC-827 = system: HCC-827
How it was run: as §1

H3255 = system: H3255
How it was run: as §1

NCI-H661 = system: NCI-H661
How it was run: as §1

NCI-H520 = system: NCI-H520
How it was run: as §1

NCI-H1437 = system: NCI-H1437
How it was run: as §1

NCI-H1734 = system: NCI-H1734
How it was run: as §1

NCI-H1651 = system: NCI-H1651
How it was run: as §1

LK-2 = system: LK-2
How it was run: as §1

SK-MES-1 = system: SK-MES-1
How it was run: as §1

## CC(C)Oc1cc(Nc2nc(N[C@@H](C)c3ccc(F)cn3)ncc2Cl)n[nH]1 [AZ23] + CC(C)C[C@H](NC(=O)[C@H](Cc1ccccc1)NC(=O)c1cnccn1)B(O)O [Bortezomib] (partner 0.002 µM)
PC-3 [JPC-3]; first compound 0.01 µM
  relative viability: 0.893
PC-3 [JPC-3]; first compound 0.03162 µM
  relative viability: 1.01
PC-3 [JPC-3]; first compound 0.3162 µM
  relative viability: 0.887
PC-14; first compound 0.01 µM
  relative viability: 0.774
PC-14; first compound 0.03162 µM
  relative viability: 1.04
PC-14; first compound 0.3162 µM
  relative viability: 0.917
NCI-H1650; first compound 0.01 µM
  relative viability: 0.189
NCI-H1650; first compound 0.03162 µM
  relative viability: 0.242
NCI-H1650; first compound 0.3162 µM
  relative viability: 0.187
NCI-H1355; first compound 0.01 µM
  relative viability: 1.33
NCI-H1355; first compound 0.03162 µM
  relative viability: 1.17
NCI-H1355; first compound 0.3162 µM
  relative viability: 1.26
NCI-H1563; first compound 0.01 µM
  relative viability: 0.931
NCI-H1563; first compound 0.03162 µM
  relative viability: 1.01
NCI-H1563; first compound 0.3162 µM
  relative viability: 0.816
NCI-H322M; first compound 0.01 µM
  relative viability: 1.2
NCI-H322M; first compound 0.03162 µM
  relative viability: 1.32
NCI-H322M; first compound 0.3162 µM
  relative viability: 1.19
RERF-LC-KJ; first compound 0.01 µM
  relative viability: 1.23
RERF-LC-KJ; first compound 0.03162 µM
  relative viability: 1.31
RERF-LC-KJ; first compound 0.3162 µM
  relative viability: 1.17
CAL-12T; first compound 0.03162 µM
  relative viability: 1.01
CAL-12T; first compound 0.3162 µM
  relative viability: 0.876
EKVX; first compound 0.01 µM
  relative viability: 1.52
EKVX; first compound 0.03162 µM
  relative viability: 1.26
EKVX; first compound 0.3162 µM
  relative viability: 1.01
NCI-H2228; first compound 0.01 µM
  relative viability: 1.49
NCI-H2228; first compound 0.03162 µM
  relative viability: 1.19
NCI-H2228; first compound 0.3162 µM
  relative viability: 0.84
ABC-1; first compound 0.01 µM
  relative viability: 0.29
ABC-1; first compound 0.03162 µM
  relative viability: 0.269
ABC-1; first compound 0.3162 µM
  relative viability: 0.255
COR-L23; first compound 0.01 µM
  relative viability: 0.921
COR-L23; first compound 0.03162 µM
  relative viability: 1.27
COR-L23; first compound 0.3162 µM
  relative viability: 1.04
HCC-15; first compound 0.01 µM
  relative viability: 1.38
HCC-15; first compound 0.03162 µM
  relative viability: 1.09
HCC-15; first compound 0.3162 µM
  relative viability: 1.16
NCI-H2405; first compound 0.01 µM
  relative viability: 0.963
NCI-H2405; first compound 0.03162 µM
  relative viability: 1.02
NCI-H2405; first compound 0.3162 µM
  relative viability: 0.948
SW 1573; first compound 0.01 µM
  relative viability: 1.24
SW 1573; first compound 0.03162 µM
  relative viability: 1.2
SW 1573; first compound 0.3162 µM
  relative viability: 1
HCC-827; first compound 0.01 µM
  relative viability: 1.16
HCC-827; first compound 0.03162 µM
  relative viability: 1.06
HCC-827; first compound 0.3162 µM
  relative viability: 1.08
H3255; first compound 0.01 µM
  relative viability: 0.64
H3255; first compound 0.03162 µM
  relative viability: 1.06
H3255; first compound 0.3162 µM
  relative viability: 0.81
NCI-H661; first compound 0.01 µM
  relative viability: 0.828
NCI-H661; first compound 0.03162 µM
  relative viability: 0.845
NCI-H661; first compound 0.3162 µM
  relative viability: 0.773
NCI-H520; first compound 0.01 µM
  relative viability: 0.434
NCI-H520; first compound 0.03162 µM
  relative viability: 0.591
NCI-H520; first compound 0.3162 µM
  relative viability: 0.495
NCI-H1437; first compound 0.01 µM
  relative viability: 0.541
NCI-H1437; first compound 0.03162 µM
  relative viability: 0.484
NCI-H1437; first compound 0.3162 µM
  relative viability: 0.569
NCI-H1734; first compound 0.01 µM
  relative viability: 1.02
NCI-H1734; first compound 0.03162 µM
  relative viability: 1.37
NCI-H1734; first compound 0.3162 µM
  relative viability: 1.01
NCI-H1651; first compound 0.01 µM
  relative viability: 0.957
NCI-H1651; first compound 0.03162 µM
  relative viability: 1.02
NCI-H1651; first compound 0.3162 µM
  relative viability: 1.01

## C[C@@H]1CN(CC(=O)Nc2ccc3c(c2)Cc2cccc(-c4cc(=O)cc(N5CCOCC5)o4)c2S3)C[C@H](C)O1 + C[C@]1(O)C[C@@H](c2nc(-c3ccc4ccc(-c5ccccc5)nc4c3)c3c(N)nccn32)C1 [Linsitinib] (partner 1 µM)
PC-3 [JPC-3]; first compound 0.04 µM
  relative viability: 1.06
PC-3 [JPC-3]; first compound 0.1265 µM
  relative viability: 0.993
PC-3 [JPC-3]; first compound 0.4 µM
  relative viability: 0.952
PC-3 [JPC-3]; first compound 4 µM
  relative viability: 0.868
PC-14; first compound 0.04 µM
  relative viability: 0.963
PC-14; first compound 0.1265 µM
  relative viability: 0.902
PC-14; first compound 0.4 µM
  relative viability: 0.937
PC-14; first compound 4 µM
  relative viability: 0.754
NCI-H1355; first compound 0.04 µM
  relative viability: 0.857
NCI-H1355; first compound 0.1265 µM
  relative viability: 0.792
NCI-H1355; first compound 0.4 µM
  relative viability: 0.866
NCI-H1355; first compound 4 µM
  relative viability: 0.815
NCI-H1563; first compound 0.04 µM
  relative viability: 1.17
NCI-H1563; first compound 0.1265 µM
  relative viability: 1.28
NCI-H1563; first compound 0.4 µM
  relative viability: 0.988
NCI-H1563; first compound 4 µM
  relative viability: 1.1
NCI-H322M; first compound 0.04 µM
  relative viability: 1.01
NCI-H322M; first compound 0.1265 µM
  relative viability: 0.847
NCI-H322M; first compound 0.4 µM
  relative viability: 0.857
NCI-H322M; first compound 4 µM
  relative viability: 0.79
RERF-LC-KJ; first compound 0.04 µM
  relative viability: 0.922
RERF-LC-KJ; first compound 0.1265 µM
  relative viability: 0.907
RERF-LC-KJ; first compound 0.4 µM
  relative viability: 0.91
RERF-LC-KJ; first compound 4 µM
  relative viability: 0.774
CAL-12T; first compound 0.04 µM
  relative viability: 0.893
CAL-12T; first compound 0.1265 µM
  relative viability: 0.78
CAL-12T; first compound 0.4 µM
  relative viability: 0.648
CAL-12T; first compound 4 µM
  relative viability: 0.54
EKVX; first compound 0.04 µM
  relative viability: 0.954
EKVX; first compound 0.1265 µM
  relative viability: 0.982
EKVX; first compound 0.4 µM
  relative viability: 0.963
EKVX; first compound 4 µM
  relative viability: 0.972
NCI-H2228; first compound 0.04 µM
  relative viability: 0.685
NCI-H2228; first compound 0.1265 µM
  relative viability: 0.731
NCI-H2228; first compound 0.4 µM
  relative viability: 0.34
NCI-H2228; first compound 4 µM
  relative viability: 0.334
ABC-1; first compound 0.1265 µM
  relative viability: 0.781
ABC-1; first compound 0.4 µM
  relative viability: 0.769
ABC-1; first compound 4 µM
  relative viability: 0.673
COR-L23; first compound 0.04 µM
  relative viability: 0.97
COR-L23; first compound 0.1265 µM
  relative viability: 0.878
COR-L23; first compound 0.4 µM
  relative viability: 0.936
COR-L23; first compound 4 µM
  relative viability: 0.796
HCC-15; first compound 0.04 µM
  relative viability: 0.85
HCC-15; first compound 0.1265 µM
  relative viability: 0.809
HCC-15; first compound 0.4 µM
  relative viability: 0.878
HCC-15; first compound 4 µM
  relative viability: 0.674
NCI-H2405; first compound 0.04 µM
  relative viability: 0.896
NCI-H2405; first compound 0.1265 µM
  relative viability: 1.04
NCI-H2405; first compound 0.4 µM
  relative viability: 0.832
NCI-H2405; first compound 4 µM
  relative viability: 0.881
SW 1573; first compound 0.04 µM
  relative viability: 0.814
SW 1573; first compound 0.1265 µM
  relative viability: 0.914
SW 1573; first compound 0.4 µM
  relative viability: 0.646
SW 1573; first compound 4 µM
  relative viability: 0.771
LK-2; first compound 0.04 µM
  relative viability: 0.255
LK-2; first compound 0.1265 µM
  relative viability: 0.394
LK-2; first compound 0.4 µM
  relative viability: 0.666
LK-2; first compound 4 µM
  relative viability: 0.824
HCC-827; first compound 0.04 µM
  relative viability: 1
HCC-827; first compound 0.1265 µM
  relative viability: 0.895
HCC-827; first compound 0.4 µM
  relative viability: 0.978
HCC-827; first compound 4 µM
  relative viability: 0.954
H3255; first compound 0.04 µM
  relative viability: 0.934
H3255; first compound 0.1265 µM
  relative viability: 1.04
H3255; first compound 0.4 µM
  relative viability: 0.818
H3255; first compound 4 µM
  relative viability: 0.879
SK-MES-1; first compound 0.04 µM
  relative viability: 1.13
SK-MES-1; first compound 0.1265 µM
  relative viability: 1.06
SK-MES-1; first compound 0.4 µM
  relative viability: 1.02
SK-MES-1; first compound 4 µM
  relative viability: 0.836
NCI-H661; first compound 0.1265 µM
  relative viability: 0.556
NCI-H661; first compound 0.4 µM
  relative viability: 0.599
NCI-H661; first compound 4 µM
  relative viability: 0.506
NCI-H520; first compound 0.04 µM
  relative viability: 1.1
NCI-H520; first compound 0.1265 µM
  relative viability: 0.83
NCI-H520; first compound 0.4 µM
  relative viability: 0.748
NCI-H520; first compound 4 µM
  relative viability: 0.837
NCI-H1437; first compound 0.04 µM
  relative viability: 1.01
NCI-H1437; first compound 0.1265 µM
  relative viability: 0.989
NCI-H1437; first compound 0.4 µM
  relative viability: 0.939
NCI-H1437; first compound 4 µM
  relative viability: 0.575
NCI-H1734; first compound 0.04 µM
  relative viability: 1.01
NCI-H1734; first compound 0.1265 µM
  relative viability: 0.85
NCI-H1734; first compound 0.4 µM
  relative viability: 0.801
NCI-H1734; first compound 4 µM
  relative viability: 0.92
NCI-H1651; first compound 0.04 µM
  relative viability: 1.01
NCI-H1651; first compound 0.1265 µM
  relative viability: 0.944
NCI-H1651; first compound 0.4 µM
  relative viability: 0.757
NCI-H1651; first compound 4 µM
  relative viability: 0.96
